Measured values taken from US8206983B2, “In vitro methods for the induction and maintenance of plant cell lines as single suspension cells with intact cell walls” (Dow AgroSciences, LLC., priority 2006, dated 2012).

Assays:
[1] = system: JTNT1 single cells; test: Cytological characterization of JTNT1 single cells (nucleus, cell wall); assay type: cell-based, tobacco
Description: (§1) JTNT1 Tobacco single cell initiation and sample collection. JTNT1 Tobacco single cells were initiated in two different media, NT1B with 3% sucrose (NT1B-Suc) and NT1B with 3% glycerol (NT1B-Gly) in 3.5 day culture cycle. […] The flasks were closed with a foam stopper and cultured on a orbital shaker at 130 rpm in dark at 25-28° C. The cultures were sub cultured every 3.5 days up to a period of 14 days. Four samples (Suc/Gly grown cells and the control cultures in Suc/Gly media with 0.2% DMSO) of the cultures were harvested every 3.5 days by spinning the suspension at 3000 rpm for 5 minutes. The samples were immediately lyophilized to prevent any cell oxidation to minimize any deleterious effect on the samples introduced post harvest. Single cells were stained with Hoechst nuclear stain for an hour and observed under scopes for any nuclear anomaly up to two culture cycles.
Cell viability and Cell wall. Established JTNT1 single cells were used to stain with FUN1 (F-7030, Molecular Probes, Invitrogen Inc) cell stain which is used for viability test in yeast, and this contains two color fluorescent probes. The third one, Calcofluor White M2R which stains cell wall, was used to stain the cells. For JTNT1 single cells, […] of FUN1 stain is added and the culture was incubated at room temperature for 20 mins 1 mL fresh culture media was added to wash the excess stain and centrifuged at 3000 rpm; the supernantant was discarded. The cells were examined and imaged on Zeiss ApoTome microscope.
Nucleus. Single cells were stained with Hoechst nuclear stain for an hour and observed on Zeiss Apo Tome for any nuclear anomaly up to two culture cycles. Crystal violet stain was also used as a live nuclear stain for observing nuclear structure for ploidy characterization

[2] = system: JTNT1 single cells; test: AFLP analysis of genomic instability in JTNT1 single cells produced in 1 uM diphenylpyrazole; assay type: cell-based, tobacco
Description: as §1
DNA extraction. Genomic DNA from representative samples were harvested from 3.5, 7, 10.5, and 14 days. Suc and Gly cultures along with the controls (10 samples) were extracted using CTAB protocol (See Appendix-Example 12). DNA was quantified using PicoGreen® dye from Molecular Probes, Inc. (Eugene, Oreg.). Each well of a microtiter plate contained 90 μl of 200-fold picogreen combined with 10 μl of DNA sample at 40× dilution or Lambda DNA standards (0, 2.5, 5 and 10 ng/μl). Plates were shaken briefly using standard plate shaker, and fluorescence was read (excitation ˜480 nm, emission ˜520 nm) using Spectra Max GeminiXS fluorometer from Molecular Devices (Sunnyvale, Calif.). Each sample was quantified in triplicate, and an average of the three results was used for subsequent dilutions. The DNA sample concentrations were diluted to working concentration of 91 ng/μl with sterile water.
AFLP analysis. Amplified fragment length polymorphism (AFLP) assays were performed using a modification of the protocol of Vos et. al. (1995), as described in Bryan et. al. (2002). The 6-bp cutting restriction enzyme EcoRI was used in combination with the 4-bp cutting restriction enzyme MseI. EcoR1 fluorescently labeled and Mse1 non-labeled AFLP primers were ordered from Applied Biosystems (Foster City, Calif.). AFLP analysis was carried out using Applied Biosystems' AFLP Plant Mapping Protocol through the selective amplification reaction with one modification. The modification was that digestion/ligation reactions were incubated at 37° C. overnight. Selectively amplified products were diluted 2 fold in sterilized deionized water. 0.5 ul of the diluted product was combined with 5 ul of loading buffer (5 ul GeneScan 500 by LIZ size standard mixed with 500 ul ABI HiDi Formamide). Samples were analyzed on an AB3730XL DNA Analyzer with G5-RCT spectral matrix using standard conditions. Data was then imported into GeneMapper® version 4.0 (Applied Biosystems, 2005). Alleles were assigned a numeric value according to PCR fragment size.

nuclear organization of single cells ([1]; 1 uM, 3.5 d cultures): single nucleus
nuclear ploidy ([1]; 14 days of continuous treatments): low or no nuclear ploidy percentage
Number of polymorphic bands, Total ([2]; all primer combinations, 14 d, Gly, 1 uM): 34
subculture cycles without genomic instability problem ([2]; concentration range tested): at least 4 subculture cycles
Number of polymorphic bands ([2]; primer 1p AC/CAG, 3.5 d, Gly, 1 uM): 0
Number of polymorphic bands ([2]; primer 1p AC/CAG, 3.5 d, Suc, 1 uM): 0
Number of polymorphic bands ([2]; primer 1p AC/CAG, 7 d, Gly, 1 uM): 0
Number of polymorphic bands ([2]; primer 1p AC/CAG, 7 d, Suc, 1 uM): 0
Number of polymorphic bands ([2]; primer 1p AC/CAG, 10.5 d, Gly, 1 uM): 0
Number of polymorphic bands ([2]; primer 1p AC/CAG, 10.5 d, Suc, 1 uM): 0
Number of polymorphic bands ([2]; primer 1p AC/CAG, 14 d, Gly, 1 uM): 5
Number of polymorphic bands ([2]; primer 1p AC/CAG, 14 d, Suc, 1 uM): 0
Number of polymorphic bands ([2]; primer 2p AGC/CAG, 3.5 d, Gly, 1 uM): 0
Number of polymorphic bands ([2]; primer 2p AGC/CAG, 3.5 d, Suc, 1 uM): 0
Number of polymorphic bands ([2]; primer 2p AGC/CAG, 7 d, Gly, 1 uM): 0
Number of polymorphic bands ([2]; primer 2p AGC/CAG, 7 d, Suc, 1 uM): 0
Number of polymorphic bands ([2]; primer 2p AGC/CAG, 10.5 d, Gly, 1 uM): 0
Number of polymorphic bands ([2]; primer 2p AGC/CAG, 10.5 d, Suc, 1 uM): 0
Number of polymorphic bands ([2]; primer 2p AGC/CAG, 14 d, Gly, 1 uM): 10
Number of polymorphic bands ([2]; primer 2p AGC/CAG, 14 d, Suc, 1 uM): 0
Number of polymorphic bands ([2]; primer 3p AGC/CTG, 3.5 d, Gly, 1 uM): 0
Number of polymorphic bands ([2]; primer 3p AGC/CTG, 3.5 d, Suc, 1 uM): 0
Number of polymorphic bands ([2]; primer 3p AGC/CTG, 7 d, Gly, 1 uM): 0
Number of polymorphic bands ([2]; primer 3p AGC/CTG, 7 d, Suc, 1 uM): 0
Number of polymorphic bands ([2]; primer 3p AGC/CTG, 10.5 d, Gly, 1 uM): 0
Number of polymorphic bands ([2]; primer 3p AGC/CTG, 10.5 d, Suc, 1 uM): 0
Number of polymorphic bands ([2]; primer 3p AGC/CTG, 14 d, Gly, 1 uM): 0
Number of polymorphic bands ([2]; primer 3p AGC/CTG, 14 d, Suc, 1 uM): 0
Number of polymorphic bands ([2]; primer 4p ACT/CTT, 3.5 d, Gly, 1 uM): 0
Number of polymorphic bands ([2]; primer 4p ACT/CTT, 3.5 d, Suc, 1 uM): 0
Number of polymorphic bands ([2]; primer 4p ACT/CTT, 7 d, Gly, 1 uM): 0
Number of polymorphic bands ([2]; primer 4p ACT/CTT, 7 d, Suc, 1 uM): 0
Number of polymorphic bands ([2]; primer 4p ACT/CTT, 10.5 d, Gly, 1 uM): 0
Number of polymorphic bands ([2]; primer 4p ACT/CTT, 10.5 d, Suc, 1 uM): 0
Number of polymorphic bands ([2]; primer 4p ACT/CTT, 14 d, Gly, 1 uM): 5
Number of polymorphic bands ([2]; primer 4p ACT/CTT, 14 d, Suc, 1 uM): 0
Number of polymorphic bands ([2]; primer 5p ACT/CAG, 3.5 d, Gly, 1 uM): 0
Number of polymorphic bands ([2]; primer 5p ACT/CAG, 3.5 d, Suc, 1 uM): 0
Number of polymorphic bands ([2]; primer 5p ACT/CAG, 7 d, Gly, 1 uM): 0
Number of polymorphic bands ([2]; primer 5p ACT/CAG, 7 d, Suc, 1 uM): 0
Number of polymorphic bands ([2]; primer 5p ACT/CAG, 10.5 d, Gly, 1 uM): 0
Number of polymorphic bands ([2]; primer 5p ACT/CAG, 10.5 d, Suc, 1 uM): 0
Number of polymorphic bands ([2]; primer 5p ACT/CAG, 14 d, Gly, 1 uM): 3
Number of polymorphic bands ([2]; primer 5p ACT/CAG, 14 d, Suc, 1 uM): 0
Number of polymorphic bands ([2]; primer 7p ACC/CAG, 3.5 d, Gly, 1 uM): 0
Number of polymorphic bands ([2]; primer 7p ACC/CAG, 3.5 d, Suc, 1 uM): 0
Number of polymorphic bands ([2]; primer 7p ACC/CAG, 7 d, Gly, 1 uM): 0
Number of polymorphic bands ([2]; primer 7p ACC/CAG, 7 d, Suc, 1 uM): 0
Number of polymorphic bands ([2]; primer 7p ACC/CAG, 10.5 d, Gly, 1 uM): 0
Number of polymorphic bands ([2]; primer 7p ACC/CAG, 10.5 d, Suc, 1 uM): 0
Number of polymorphic bands ([2]; primer 7p ACC/CAG, 14 d, Gly, 1 uM): 4
Number of polymorphic bands ([2]; primer 7p ACC/CAG, 14 d, Suc, 1 uM): 0
Number of polymorphic bands ([2]; primer 8p ACC/CTG, 3.5 d, Gly, 1 uM): 0
Number of polymorphic bands ([2]; primer 8p ACC/CTG, 3.5 d, Suc, 1 uM): 0
Number of polymorphic bands ([2]; primer 8p ACC/CTG, 7 d, Gly, 1 uM): 0
Number of polymorphic bands ([2]; primer 8p ACC/CTG, 7 d, Suc, 1 uM): 0
Number of polymorphic bands ([2]; primer 8p ACC/CTG, 10.5 d, Gly, 1 uM): 0
Number of polymorphic bands ([2]; primer 8p ACC/CTG, 10.5 d, Suc, 1 uM): 0
Number of polymorphic bands ([2]; primer 8p ACC/CTG, 14 d, Gly, 1 uM): 0
Number of polymorphic bands ([2]; primer 8p ACC/CTG, 14 d, Suc, 1 uM): 0
Number of polymorphic bands ([2]; primer 9p ACA/CAG, 3.5 d, Gly, 1 uM): 0
Number of polymorphic bands ([2]; primer 9p ACA/CAG, 3.5 d, Suc, 1 uM): 0
Number of polymorphic bands ([2]; primer 9p ACA/CAG, 7 d, Gly, 1 uM): 0
Number of polymorphic bands ([2]; primer 9p ACA/CAG, 7 d, Suc, 1 uM): 0
Number of polymorphic bands ([2]; primer 9p ACA/CAG, 10.5 d, Gly, 1 uM): 0
Number of polymorphic bands ([2]; primer 9p ACA/CAG, 10.5 d, Suc, 1 uM): 0
Number of polymorphic bands ([2]; primer 9p ACA/CAG, 14 d, Gly, 1 uM): 7
Number of polymorphic bands ([2]; primer 9p ACA/CAG, 14 d, Suc, 1 uM): 0
SMILES: CCOC(=O)COc1nn(-c2ccccc2)c(-c2ccccc2)c1Cl [DAS-PMTI-1]
